According to publication PMC10987960:

target: T1, PEDV 3CL^pro (Porcine epidemic diarrhea virus CV777, UniProt P0C6Y4); experiment: FRET protease assay, Dabcyl/Edans peptide; type: biochemical; details: not given
T1 construct: gene rep; mature nsp5 cut from replicase polyproteins pp1a/pp1ab; N- and C-terminal His tags (kept, no cleavage told), pET-28a(+), E. coli BL21(DE3), nickel column; docking used PDB 4XFQ
T1 sequence (P0C6Y4 2998-3299 limits assumed): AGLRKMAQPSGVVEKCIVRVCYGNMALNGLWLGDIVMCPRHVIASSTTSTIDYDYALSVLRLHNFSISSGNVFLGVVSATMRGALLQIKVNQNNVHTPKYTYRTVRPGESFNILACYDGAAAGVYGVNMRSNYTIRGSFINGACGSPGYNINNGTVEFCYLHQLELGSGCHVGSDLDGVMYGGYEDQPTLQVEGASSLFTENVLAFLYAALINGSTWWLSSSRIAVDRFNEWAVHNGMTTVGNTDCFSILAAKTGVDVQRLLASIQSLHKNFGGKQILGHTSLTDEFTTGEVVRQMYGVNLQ

| Structure (SMILES) | IC50 [µM] |
| --- | --- |
| O=c1cc(-c2ccccc2)oc2cc(O)c(O)c(O)c12 [Baicalein] | 9.5 ± 1.02 |
| O=C(O)[C@H]1O[C@@H](Oc2cc3oc(-c4ccccc4)cc(=O)c3c(O)c2O)[C@H](O)[C@@H](O)[C@@H]1O [Baicalin] | 65.8 ± 6.57 |

target: T1, PEDV 3CL^pro; experiment: FRET protease assay, Dabcyl/Edans peptide; type: biochemical; details: read-out: Inhibitory rate
Text: FRET protease assay, Dabcyl/Edans peptide on PEDV 3CL^pro

| Structure (SMILES) | inhibition at 20 µM [%] |
| --- | --- |
| O=C(O[C@@H]1Cc2c(O)cc(O)cc2O[C@H]1c1cc(O)c(O)c(O)c1)c1cc(O)c(O)c(O)c1 [compound 1, (−)-Gallocatechin gallate] | 97.65 ± 0.35 |
| O=c1c(O)c(-c2ccc(O)c(O)c2)oc2cc(O)ccc12 [compound 2, Fisetin] | 96.8 ± 2.64 |
| O=c1c(O)c(-c2ccc(O)c(O)c2)oc2cc(O)c(O)c(O)c12 [compound 3, Quercetagetin] | 91.8 ± 2.74 |
| O=c1c(-c2ccc(O)cc2)coc2cc(O)ccc12 [compound 4, Daidzein] | 91.26 ± 0.85 |
| O=c1c(O)c(-c2cc(O)c(O)c(O)c2)oc2cc(O)cc(O)c12 [compound 6, Myricetin] | 75.3 ± 2.33 |
